Results taken from patent US20120324604A1, “PESTICIDAL MIXTURES CONTAINING ISOXAZOLINE DERIVATIVES AND A FUNGICIDE” (priority 2010, published 2012).
Several values for one entry are separate records, joined by “and”; a condition that tells them apart may be missing. Equal entries are not always repeated.

How the values were obtained:
Type in all cases: cell-based
[1] = test system: Mycosphaerella arachidis (syn. Cercospora arachidicola); test: Mycosphaerella arachidis (Brown Leaf Spot of Groundnut) growth inhibition, microtiter plate, photometric; settings: alone
Experimental: Mycosphaerella arachidis (syn. Cercospora arachidicola), Brown Leaf Spot of Groundnut (Peanut):
(§1) Conidia of the fungus from cryogenic storage were directly mixed into nutrient broth (potato dextrose broth). After placing a (DMSO) solution of the test compounds into a microtiter plate (96-well format) the nutrient broth containing the fungal spores was added.

Fusarium culmorum = Fusarium culmorum (Root Rot) growth inhibition, microtiter plate, photometric
Experimental: Fusarium culmorum (Root Rot):
as §1

Botrvtis cinerea = Botrvtis cinerea (Gray Mould) growth inhibition, microtiter plate, photometric; settings: alone
Experimental: Botrvtis cinerea (Gray Mould):
as §1

Septoria tritici = Septoria tritici (Leaf Blotch) growth inhibition, microtiter plate, photometric; settings: for AVERAGE DEAD IN %: alone; for AVERAGE DEAD IN % COMPOUND IV: COMPOUND IV alone; for AVERAGE DEAD IN % Chlorothalonil: Chlorothalonil alone
Experimental: Septoria tritici (Leaf Blotch):
as §1

Gaeumannomyces graminis = Gaeumannomyces graminis growth inhibition, microtiter plate, photometric
Experimental: Mycelial fragments of the fungus from cryogenic storage were directly mixed into nutrient broth (potato dextrose broth). After placing a (DMSO) solution of the test compounds into a microliter plate (96-well format) the nutrient broth containing the fungal spores was added.

Pythium ultimum = Pythium ultimum (Damping Off) growth inhibition, microtiter plate, photometric
Experimental: Pythium ultimum (Damping Off):
Mycelial fragments of the fungus, prepared from a fresh liquid culture, were directly mixed into nutrient broth (potato dextrose broth). After placing a (DMSO) solution of the test compounds into a microtiter plate (96-well format) the nutrient broth containing the fungal spores was added.

[2] = test system: Glomerella lagenarium (syn. Colletotrichum lagenarium); test: Glomerella lagenarium (Anthracnose of Cucurbits) growth inhibition, microtiter plate, photometric; settings: alone
Experimental: Glomerella lagenarium (syn. Colletotrichum lagenarium), Anthracnose of Cucurbits:
as §1

Rhizoctonia solani = Rhizoctonia solani (Foot Rot, Damping-Off) growth inhibition, microtiter plate, photometric
Experimental: Rhizoctonia solani (Foot Rot, Damping-Off):
Mycelial fragments of the fungus from cryogenic storage were directly mixed into nutrient broth (potato dextrose broth). After placing a (DMSO) solution of the test compounds into a microtiter plate (96-well format) the nutrient broth containing the fungal spores was added.

COC(c1ccc(Cl)cc1Cl)C(C)NC(=O)c1cn(C)nc1C(F)F (centres unmarked) [COMPOUND IV]
AVERAGE DEAD IN % ([1]; 0.0625 ppm AI): 20% | AVERAGE DEAD IN % ([1]; 0.125 ppm AI): 90% | AVERAGE DEAD IN % ([1]; 0.125 PPM AI): 90% | AVERAGE DEAD IN % (Fusarium culmorum; alone, 1 PPM AI): 20% | AVERAGE DEAD IN % (Fusarium culmorum; alone, 2 PPM AI): 50% | AVERAGE DEAD IN % (Fusarium culmorum; single compound, 0.5 PPM AI, 48 hrs, 24° C.): 0% | AVERAGE DEAD IN % (Fusarium culmorum; single compound, 1 PPM AI, 48 hrs, 24° C.): 20% | AVERAGE DEAD IN % (Fusarium culmorum; single compound, 2 PPM AI, 48 hrs, 24° C.): 50% | AVERAGE DEAD IN % (Botrvtis cinerea; 0.03125 ppm AI): 0% | AVERAGE DEAD IN % (Botrvtis cinerea; 0.0625 ppm AI): 20% | AVERAGE DEAD IN % (Botrvtis cinerea; 0.125 ppm AI): 20% | AVERAGE DEAD IN % (Botrvtis cinerea; 0.25 ppm AI): 50% | AVERAGE DEAD IN % (Botrvtis cinerea; 0.5 ppm AI): 70% | AVERAGE DEAD IN % (Botrvtis cinerea; 1 ppm AI): 90% | AVERAGE DEAD IN % (Septoria tritici; 0.125 ppm AI): 20% | AVERAGE DEAD IN % (Septoria tritici; 0.25 ppm AI): 90% | AVERAGE DEAD IN % COMPOUND IV (Septoria tritici; 0.25 ppm AI): 70% and 90% | AVERAGE DEAD IN % COMPOUND IV (Septoria tritici; 0.5 ppm AI): 90% and 100% | AVERAGE DEAD IN % (Gaeumannomyces graminis; single compound at 0.25 ppm AI): 0% | AVERAGE DEAD IN % (Gaeumannomyces graminis; single compound at 0.5 ppm AI): 0% | AVERAGE DEAD IN % (Gaeumannomyces graminis; single compound at 1 ppm AI): 0%

N#Cc1c(Cl)c(Cl)c(Cl)c(C#N)c1Cl [Chlorothalonil, reference compound]
AVERAGE DEAD IN % (Pythium ultimum; single compound at 0.25 ppm AI): 0% | AVERAGE DEAD IN % (Pythium ultimum; single compound at 0.5 ppm AI): 0% | AVERAGE DEAD IN % (Pythium ultimum; single compound at 1 ppm AI): 0% | AVERAGE DEAD IN % ([1]; 0.125 ppm AI): 20% | AVERAGE DEAD IN % ([1]; 0.5 ppm AI): 70% | AVERAGE DEAD IN % ([1]; 0.25 PPM AI): 20% | AVERAGE DEAD IN % ([1]; 0.5 PPM AI): 100% and 70% | AVERAGE DEAD IN % ([2]; 0.25 ppm AI): 50% and 90% | AVERAGE DEAD IN % ([2]; 0.5 ppm AI): 70% | AVERAGE DEAD IN % (Fusarium culmorum; alone, 0.5 PPM AI): 0% | AVERAGE DEAD IN % (Rhizoctonia solani; applied alone, 0.5 ppm AI): 70% | AVERAGE DEAD IN % (Rhizoctonia solani; applied alone, 1 ppm AI): 90% | AVERAGE DEAD IN % (Rhizoctonia solani; single compound at 1 ppm AI): 0% | AVERAGE DEAD IN % (Rhizoctonia solani; single compound at 2 ppm AI): 0% | AVERAGE DEAD IN % (Septoria tritici; 0.25 ppm AI): 0% | AVERAGE DEAD IN % (Septoria tritici; 0.5 ppm AI): 50% | AVERAGE DEAD IN % Chlorothalonil (Septoria tritici; 0.03125 ppm AI): 0% | AVERAGE DEAD IN % Chlorothalonil (Septoria tritici; 0.0625 ppm AI): 70% | AVERAGE DEAD IN % Chlorothalonil (Septoria tritici; 0.25 ppm AI): 20% | AVERAGE DEAD IN % (Septoria tritici; 1 ppm AI): 70% | AVERAGE DEAD IN % (Gaeumannomyces graminis; single compound at 0.25 ppm AI): 0% | AVERAGE DEAD IN % (Gaeumannomyces graminis; single compound at 1 ppm AI): 50% and 100% and 90% | AVERAGE DEAD IN % (Gaeumannomyces graminis; single compound at 2 ppm AI): 90% and 100%
